According to ChEMBL document CHEMBL1201862, “PubChem BioAssay data set” (2004):
The source made the active and inactive calls.

Key:
[1] = tested on: HeLa; assay: Cytotoxicity counterscreen assay for transcriptional activators of heat shock protein 70 (Hsp70). [Related pubchem assays: 1203, 1252 ]; type: functional; details: Homo sapiens;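 also: cells exposed to compound for 16 hours before readout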
[2] = target: T1, Peroxisome proliferator-activated receptor gamma/Nuclear receptor coactivator 1 (Homo sapiens, UniProt P37231); assay: TR-FRET dose response biochemical High Throughput Screening assay for agonists of the steroid receptor coactivator 1 (SRC-1) recruitment by the peroxisome proliferator-activated receptor gamma (PPAR gamma): non-selective agonists. [Related pubchem assays (depositor defined):AID1300, AID1808, AID504735, AID631]; type: protein assay
[3] = target: T2, Peroxisome proliferator-activated receptor gamma/Nuclear receptor coactivator 2 (Homo sapiens, UniProt P37231); assay: (§1) TR-FRET dose response biochemical High Throughput Screening assay for agonists of the steroid receptor coactivator 2 (SRC-2) recruitment by the peroxisome proliferator-activated receptor gamma (PPAR gamma): non-selective agonists. [Related pubchem assays: 1297, 1032 ]; type: functional
[4] = target: T3, Peroxisome proliferator-activated receptor gamma/Nuclear receptor coactivator 3 (Homo sapiens, UniProt P37231); assay: as §1, with “3 (SRC-3)” for “2 (SRC-2)”, “1301 (Confirmation screen.), 1048 (Primary screen.)]” for “1297, 1032 ]”; type: functional
[5] = target: T4, Mannose-6-phosphate isomerase (Homo sapiens, UniProt P34949); assay: human PMI inhibitors, high substrate, primary screen, biochemical, fluorescence intensity, high mannose 6-phosphate (AID 1220)
T4 sequence (P34949 whole entry): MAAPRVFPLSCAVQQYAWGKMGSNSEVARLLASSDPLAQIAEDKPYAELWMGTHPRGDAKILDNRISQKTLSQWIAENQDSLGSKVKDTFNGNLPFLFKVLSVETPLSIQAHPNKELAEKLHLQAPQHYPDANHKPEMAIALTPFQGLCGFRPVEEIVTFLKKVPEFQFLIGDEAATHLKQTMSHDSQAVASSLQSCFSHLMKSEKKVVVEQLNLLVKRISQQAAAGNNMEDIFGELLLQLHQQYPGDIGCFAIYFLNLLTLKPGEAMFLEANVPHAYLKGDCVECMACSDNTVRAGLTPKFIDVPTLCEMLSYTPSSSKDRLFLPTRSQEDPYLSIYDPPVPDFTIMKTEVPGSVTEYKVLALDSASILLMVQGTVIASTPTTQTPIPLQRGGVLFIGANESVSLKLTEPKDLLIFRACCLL

[6] = target: T4, Mannose-6-phosphate isomerase; assay: inhibitors of human PMI, primary screen, biochemical, fluorescence intensity, coupled assay (AID 1209)
[7] = target: Glucose-6-phosphate 1-dehydrogenase (Homo sapiens, UniProt P11413); assay: human G6PD enzyme inhibitors, dose response, selectivity assay for P. falciparum G6PD inhibitor project, biochemical, fluorescence (AID 504792); type: functional
[8] = target: Sphingosine 1-phosphate receptor 3 (Homo sapiens, UniProt Q99500); assay: Dose response cell-based high throughput screening assay for antagonists of the Sphingosine 1-Phosphate Receptor 3 (S1P3). [Related pubchem assays: 1429, 485 ]; type: functional
[9] = target: 5-hydroxytryptamine receptor 1E (Homo sapiens, UniProt P28566); assay: Counterscreen assay for S1P3 antagonists: Dose response cell-based high throughput screening assay to identify antagonists of the 5-Hydroxytryptamine Receptor Subtype 1E (5HT1E). [Related pubchem assays: 1429, 485 ]; type: functional
[10] = HIV-1 Env-mediated cell fusion inhibitors, dose response, CCR5-tropic Env (AID 2279); type: functional
[11] = tested on: HEK293; assay: cells; type: functional, cell-based; details: Homo sapiens
[12] = target: T5, Neuropeptide Y receptor type 2 (Homo sapiens, UniProt P49146); assay: NPY-Y2 antagonist potency, selectivity check, dose response, counter-screen for NPY-Y1 antagonist project, cell-based (AID 1278); type: functional
[13] = target: T6, Neuropeptide Y receptor type 1 (Homo sapiens, UniProt P25929); assay: NPY-Y1 receptor antagonist potency, dose response, cell-based (AID 1277); type: functional
[14] = NIH-3T3 fibroblast cytotoxicity, dose response, cytotoxicity control, cell-based, fluorescence, Alamar Blue, secondary assay (AID 2327); type: functional;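 also: NIH-3T3 mouse fibroblasts cultured with fluconazole at 8 µg/mL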
[15] = tested on: HEK293; assay: cells; type: functional, cell-based; details: Homo sapiens; remark: listed apart in the source
[16] = target: Nucleotide-binding oligomerization domain-containing protein 2 (Homo sapiens, UniProt Q9HC29); assay: NOD2 signaling inhibitors, cell-based, luminescence, uHTS, HEK293 (AID 1566); type: functional
[17] = tested on: HEK293; assay: NOD2 signaling inhibitors in MDP-stimulated cells, cell-based, uHTS, luminescence (AID 2001); type: functional; details: Homo sapiens
[18] = tested on: HEK293; assay: NOD1 signaling inhibitors, primary screen, cell-based, luminescence, uHTS (AID 1578); type: functional; details: Homo sapiens
[19] = tested on: HEK293; assay: cells; type: functional, cell-based; details: Homo sapiens; remark: listed apart in the source
[20] = target: T2, Peroxisome proliferator-activated receptor gamma/Nuclear receptor coactivator 2; type: functional
[21] = target: T1, Peroxisome proliferator-activated receptor gamma/Nuclear receptor coactivator 1; type: functional
[22] = target: T3, Peroxisome proliferator-activated receptor gamma/Nuclear receptor coactivator 3; type: functional
[23] = target: T7, Streptokinase A (Streptococcus pyogenes serotype M1, UniProt P10520); assay: S. pyogenes streptokinase expression inhibitors, potency, dose response, plasminogen activation absorbance, OD405 (AID 1914); type: functional, Streptococcus pyogenes M1 GAS;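 also: secreted streptokinase activity via plasminogen activation per viability signal from cell pellet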
T7 sequence (P10520 whole entry): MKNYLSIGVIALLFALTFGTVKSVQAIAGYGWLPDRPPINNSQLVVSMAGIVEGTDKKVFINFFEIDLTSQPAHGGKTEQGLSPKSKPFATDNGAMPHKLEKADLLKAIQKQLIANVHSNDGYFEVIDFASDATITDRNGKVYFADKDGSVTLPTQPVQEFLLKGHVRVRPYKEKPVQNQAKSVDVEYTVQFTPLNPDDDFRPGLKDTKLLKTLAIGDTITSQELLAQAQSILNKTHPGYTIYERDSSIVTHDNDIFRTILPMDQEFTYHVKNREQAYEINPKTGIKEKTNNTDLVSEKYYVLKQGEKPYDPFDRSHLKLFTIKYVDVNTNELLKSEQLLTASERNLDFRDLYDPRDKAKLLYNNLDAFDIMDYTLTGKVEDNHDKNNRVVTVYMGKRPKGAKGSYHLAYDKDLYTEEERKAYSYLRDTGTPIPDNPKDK

[24] = target: T8, Protein RecA (Mycobacterium tuberculosis, UniProt P9WHJ3); assay: Fluorescence Cell-Free Homogeneous Dose Retest to Identify Inhibitors of RecA-Intein Splicing Activity. [Related pubchem assays (depositor defined):AID2097, AID2223, AID489010, AID492950]; type: functional
T8 sequence (P9WHJ3 whole entry): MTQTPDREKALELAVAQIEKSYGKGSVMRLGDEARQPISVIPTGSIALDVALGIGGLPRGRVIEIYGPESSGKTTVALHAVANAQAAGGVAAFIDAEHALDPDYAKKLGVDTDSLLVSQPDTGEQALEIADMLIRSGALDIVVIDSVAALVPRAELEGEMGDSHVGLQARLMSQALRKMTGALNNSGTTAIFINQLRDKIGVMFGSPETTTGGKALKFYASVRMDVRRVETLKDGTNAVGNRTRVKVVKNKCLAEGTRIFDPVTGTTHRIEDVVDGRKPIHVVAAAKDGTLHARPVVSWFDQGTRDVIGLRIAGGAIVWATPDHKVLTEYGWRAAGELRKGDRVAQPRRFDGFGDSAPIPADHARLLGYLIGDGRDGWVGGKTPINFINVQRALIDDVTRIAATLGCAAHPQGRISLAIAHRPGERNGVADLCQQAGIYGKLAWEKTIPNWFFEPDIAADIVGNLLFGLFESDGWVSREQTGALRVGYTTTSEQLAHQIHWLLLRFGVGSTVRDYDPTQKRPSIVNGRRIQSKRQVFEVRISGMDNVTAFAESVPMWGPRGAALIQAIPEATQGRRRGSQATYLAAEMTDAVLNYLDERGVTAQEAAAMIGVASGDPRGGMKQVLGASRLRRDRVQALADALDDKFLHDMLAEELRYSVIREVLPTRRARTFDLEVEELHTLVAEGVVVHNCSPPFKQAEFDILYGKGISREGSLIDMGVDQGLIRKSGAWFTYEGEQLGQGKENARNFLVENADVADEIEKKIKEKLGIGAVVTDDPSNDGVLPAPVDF

[25] = tested on: Streptococcus sp. 'group A'; assay: growth inhibition of control SK(-) GAS strain, dose response, counter-screen for streptokinase expression inhibitor project, luminescence, kanamycin, BacTiterGlo, confirmation (AID 1900); type: functional, organism-based
[26] = enhancers of respiration in Yfh1-depleted yeast, dose response, Friedreich's ataxia, plus single-dose screen (AID 1465); type: functional;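 also: yeast depleted of Yfh1p frataxin homolog grown on glycerol needing respiration; WST-1 tetrazolium dye reduction as measure of cellular dehydrogenase metabolic activity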
[27] = tested on: Streptococcus; assay: Group A Streptococcus viability loss, dose response, counter-screen for streptokinase expression inhibitor project, luminescence, BacTiterGlo (AID 1915); type: functional, organism-based;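 also: potency for reduction of bacterial viability or growth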
[28] = target: T9, Replicative DNA helicase DnaB (Mycobacterium tuberculosis, UniProt P9WMR3); assay: DnaB intein splicing inhibitors, dose response, biochemical, cell-free fluorescence (AID 449749); type: functional
T9 sequence (P9WMR3 whole entry): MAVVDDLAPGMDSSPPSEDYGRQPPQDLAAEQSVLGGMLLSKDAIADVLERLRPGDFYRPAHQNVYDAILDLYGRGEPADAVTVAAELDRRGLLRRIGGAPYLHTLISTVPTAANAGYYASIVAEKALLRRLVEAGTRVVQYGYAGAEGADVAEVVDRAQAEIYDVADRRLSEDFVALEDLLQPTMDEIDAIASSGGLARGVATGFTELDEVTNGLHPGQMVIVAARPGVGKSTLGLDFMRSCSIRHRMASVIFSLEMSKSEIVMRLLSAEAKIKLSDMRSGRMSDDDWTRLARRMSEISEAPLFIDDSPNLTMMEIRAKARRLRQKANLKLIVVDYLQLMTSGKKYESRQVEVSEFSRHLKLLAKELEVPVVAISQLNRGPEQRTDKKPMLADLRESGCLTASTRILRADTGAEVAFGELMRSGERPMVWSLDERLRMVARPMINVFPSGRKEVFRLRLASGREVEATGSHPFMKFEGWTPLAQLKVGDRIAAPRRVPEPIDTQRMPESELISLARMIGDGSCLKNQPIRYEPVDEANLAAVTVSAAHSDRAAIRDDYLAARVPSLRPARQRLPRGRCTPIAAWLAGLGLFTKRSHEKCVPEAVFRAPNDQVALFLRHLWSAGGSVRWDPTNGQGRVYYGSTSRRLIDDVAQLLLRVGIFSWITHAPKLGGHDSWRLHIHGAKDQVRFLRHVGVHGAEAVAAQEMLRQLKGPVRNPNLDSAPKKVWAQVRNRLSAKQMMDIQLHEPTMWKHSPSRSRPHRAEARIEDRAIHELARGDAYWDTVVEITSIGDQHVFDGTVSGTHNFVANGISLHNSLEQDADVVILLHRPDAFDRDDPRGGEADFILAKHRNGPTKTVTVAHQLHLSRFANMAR

[29] = microbe, parasite or virus in culture; type: functional; details: Mycobacterium tuberculosis
[30] = A High Throughput Confirmatory Assay used to Identify Novel Compounds that Inhibit Mycobacterium Tuberculosis in the absence of Glycerol.; type: functional
[31] = target: Luciferin 4-monooxygenase (Photinus pyralis, UniProt P08659); assay: firefly luciferase enzyme inhibitors, dose response, biochemical, luminescence (AID 1891)
[32] = target: T6, Neuropeptide Y receptor type 1; type: functional
[33] = target: T5, Neuropeptide Y receptor type 2; type: functional, cell-based
[34] = Luminescence Cell-Based Dose Confirmation HTS to Identify Inhibitors of Platelet Dense Granule Release. [Related pubchem assays: 1663 (Primary HTS), 1678 (Summary of Project)]; type: functional
[35] = target: Cytochrome P450 2D6 (Homo sapiens, UniProt P10635); assay: qHTS Assay for Inhibitors and Substrates of Cytochrome P450 2D6. [Related pubchem assays: 410 ]; type: ADME; details: read-out: Potency
[36] = target: Cytochrome P450 2C19 (Homo sapiens, UniProt P33261); assay: qHTS Assay for Inhibitors and Substrates of Cytochrome P450 2C19. [Related pubchem assays: 410 ]; type: ADME; details: read-out: Potency

T6 sequence (P25929 whole entry): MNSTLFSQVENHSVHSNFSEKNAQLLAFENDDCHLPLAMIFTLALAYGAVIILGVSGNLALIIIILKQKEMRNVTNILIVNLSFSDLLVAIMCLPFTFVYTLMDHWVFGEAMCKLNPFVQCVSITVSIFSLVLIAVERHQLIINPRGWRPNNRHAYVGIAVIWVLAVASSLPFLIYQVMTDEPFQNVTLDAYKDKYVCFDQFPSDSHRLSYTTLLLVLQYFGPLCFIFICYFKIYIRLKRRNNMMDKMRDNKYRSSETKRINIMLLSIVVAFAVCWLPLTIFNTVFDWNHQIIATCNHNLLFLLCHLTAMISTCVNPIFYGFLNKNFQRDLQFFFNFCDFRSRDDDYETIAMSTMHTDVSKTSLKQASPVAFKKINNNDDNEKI
T5 sequence (P49146 whole entry): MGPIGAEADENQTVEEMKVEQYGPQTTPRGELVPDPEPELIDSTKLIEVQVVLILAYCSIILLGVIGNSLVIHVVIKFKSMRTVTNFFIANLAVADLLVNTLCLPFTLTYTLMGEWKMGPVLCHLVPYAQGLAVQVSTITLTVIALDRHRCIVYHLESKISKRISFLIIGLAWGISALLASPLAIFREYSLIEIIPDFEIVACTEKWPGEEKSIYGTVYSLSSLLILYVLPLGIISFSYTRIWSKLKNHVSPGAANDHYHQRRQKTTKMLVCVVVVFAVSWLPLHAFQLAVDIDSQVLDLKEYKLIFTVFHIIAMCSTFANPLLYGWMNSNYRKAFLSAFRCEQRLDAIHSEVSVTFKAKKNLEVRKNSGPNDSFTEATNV
T2 sequence (P37231 whole entry): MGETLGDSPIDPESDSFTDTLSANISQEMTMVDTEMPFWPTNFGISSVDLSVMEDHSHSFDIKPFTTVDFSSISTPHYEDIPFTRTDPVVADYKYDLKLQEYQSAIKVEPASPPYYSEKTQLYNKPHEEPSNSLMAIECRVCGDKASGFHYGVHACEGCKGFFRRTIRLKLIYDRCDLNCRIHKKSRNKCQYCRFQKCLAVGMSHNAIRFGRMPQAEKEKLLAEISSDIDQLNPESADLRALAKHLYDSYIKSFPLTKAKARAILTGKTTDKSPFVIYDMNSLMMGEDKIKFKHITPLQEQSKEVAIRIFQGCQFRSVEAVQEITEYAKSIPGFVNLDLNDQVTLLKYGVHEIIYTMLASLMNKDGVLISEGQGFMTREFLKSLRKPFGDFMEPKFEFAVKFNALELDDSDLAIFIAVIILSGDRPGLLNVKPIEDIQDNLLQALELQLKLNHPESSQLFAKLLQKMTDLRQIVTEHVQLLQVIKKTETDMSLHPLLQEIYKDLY
T2 sequence (Q15596 whole entry, further chain): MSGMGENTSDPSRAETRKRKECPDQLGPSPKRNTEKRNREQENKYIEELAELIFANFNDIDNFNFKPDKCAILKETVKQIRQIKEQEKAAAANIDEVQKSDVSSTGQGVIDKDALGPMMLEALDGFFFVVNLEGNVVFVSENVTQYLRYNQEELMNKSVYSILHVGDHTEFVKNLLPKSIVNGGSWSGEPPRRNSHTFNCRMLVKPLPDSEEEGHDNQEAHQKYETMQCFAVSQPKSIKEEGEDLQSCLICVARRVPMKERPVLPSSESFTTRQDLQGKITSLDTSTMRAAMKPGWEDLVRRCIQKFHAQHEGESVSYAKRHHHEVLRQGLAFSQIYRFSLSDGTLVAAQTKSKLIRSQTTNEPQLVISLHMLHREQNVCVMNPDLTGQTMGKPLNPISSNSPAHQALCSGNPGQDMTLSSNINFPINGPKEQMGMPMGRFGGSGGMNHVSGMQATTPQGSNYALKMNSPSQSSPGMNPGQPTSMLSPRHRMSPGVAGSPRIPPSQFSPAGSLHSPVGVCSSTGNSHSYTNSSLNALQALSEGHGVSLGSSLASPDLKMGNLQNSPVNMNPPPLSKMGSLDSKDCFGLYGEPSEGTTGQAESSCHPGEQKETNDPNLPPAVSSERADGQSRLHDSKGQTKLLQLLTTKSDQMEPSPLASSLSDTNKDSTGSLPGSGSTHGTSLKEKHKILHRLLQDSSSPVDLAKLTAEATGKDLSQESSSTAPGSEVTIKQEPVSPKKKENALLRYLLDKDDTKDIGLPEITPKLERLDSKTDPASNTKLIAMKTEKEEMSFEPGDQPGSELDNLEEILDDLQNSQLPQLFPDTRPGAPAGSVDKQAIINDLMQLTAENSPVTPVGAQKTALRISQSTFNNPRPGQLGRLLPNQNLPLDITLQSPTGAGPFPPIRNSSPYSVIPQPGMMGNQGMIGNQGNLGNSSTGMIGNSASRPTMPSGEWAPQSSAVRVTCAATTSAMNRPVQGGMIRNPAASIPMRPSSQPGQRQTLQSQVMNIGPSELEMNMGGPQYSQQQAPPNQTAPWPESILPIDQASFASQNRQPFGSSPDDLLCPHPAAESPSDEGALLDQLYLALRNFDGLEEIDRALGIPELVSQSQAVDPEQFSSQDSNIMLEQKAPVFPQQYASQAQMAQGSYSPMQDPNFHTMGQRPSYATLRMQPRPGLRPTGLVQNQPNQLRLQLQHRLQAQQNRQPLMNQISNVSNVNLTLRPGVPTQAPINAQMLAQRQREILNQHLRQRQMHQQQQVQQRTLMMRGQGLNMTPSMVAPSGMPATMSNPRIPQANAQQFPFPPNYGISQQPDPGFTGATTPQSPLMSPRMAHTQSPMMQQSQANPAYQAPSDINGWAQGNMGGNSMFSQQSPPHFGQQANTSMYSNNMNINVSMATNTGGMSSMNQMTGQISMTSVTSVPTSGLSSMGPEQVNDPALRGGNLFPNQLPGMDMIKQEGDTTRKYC
T3 sequence (P37231 whole entry): as the sequence (P37231 whole entry) above
T3 sequence (Q9Y6Q9 whole entry, further chain): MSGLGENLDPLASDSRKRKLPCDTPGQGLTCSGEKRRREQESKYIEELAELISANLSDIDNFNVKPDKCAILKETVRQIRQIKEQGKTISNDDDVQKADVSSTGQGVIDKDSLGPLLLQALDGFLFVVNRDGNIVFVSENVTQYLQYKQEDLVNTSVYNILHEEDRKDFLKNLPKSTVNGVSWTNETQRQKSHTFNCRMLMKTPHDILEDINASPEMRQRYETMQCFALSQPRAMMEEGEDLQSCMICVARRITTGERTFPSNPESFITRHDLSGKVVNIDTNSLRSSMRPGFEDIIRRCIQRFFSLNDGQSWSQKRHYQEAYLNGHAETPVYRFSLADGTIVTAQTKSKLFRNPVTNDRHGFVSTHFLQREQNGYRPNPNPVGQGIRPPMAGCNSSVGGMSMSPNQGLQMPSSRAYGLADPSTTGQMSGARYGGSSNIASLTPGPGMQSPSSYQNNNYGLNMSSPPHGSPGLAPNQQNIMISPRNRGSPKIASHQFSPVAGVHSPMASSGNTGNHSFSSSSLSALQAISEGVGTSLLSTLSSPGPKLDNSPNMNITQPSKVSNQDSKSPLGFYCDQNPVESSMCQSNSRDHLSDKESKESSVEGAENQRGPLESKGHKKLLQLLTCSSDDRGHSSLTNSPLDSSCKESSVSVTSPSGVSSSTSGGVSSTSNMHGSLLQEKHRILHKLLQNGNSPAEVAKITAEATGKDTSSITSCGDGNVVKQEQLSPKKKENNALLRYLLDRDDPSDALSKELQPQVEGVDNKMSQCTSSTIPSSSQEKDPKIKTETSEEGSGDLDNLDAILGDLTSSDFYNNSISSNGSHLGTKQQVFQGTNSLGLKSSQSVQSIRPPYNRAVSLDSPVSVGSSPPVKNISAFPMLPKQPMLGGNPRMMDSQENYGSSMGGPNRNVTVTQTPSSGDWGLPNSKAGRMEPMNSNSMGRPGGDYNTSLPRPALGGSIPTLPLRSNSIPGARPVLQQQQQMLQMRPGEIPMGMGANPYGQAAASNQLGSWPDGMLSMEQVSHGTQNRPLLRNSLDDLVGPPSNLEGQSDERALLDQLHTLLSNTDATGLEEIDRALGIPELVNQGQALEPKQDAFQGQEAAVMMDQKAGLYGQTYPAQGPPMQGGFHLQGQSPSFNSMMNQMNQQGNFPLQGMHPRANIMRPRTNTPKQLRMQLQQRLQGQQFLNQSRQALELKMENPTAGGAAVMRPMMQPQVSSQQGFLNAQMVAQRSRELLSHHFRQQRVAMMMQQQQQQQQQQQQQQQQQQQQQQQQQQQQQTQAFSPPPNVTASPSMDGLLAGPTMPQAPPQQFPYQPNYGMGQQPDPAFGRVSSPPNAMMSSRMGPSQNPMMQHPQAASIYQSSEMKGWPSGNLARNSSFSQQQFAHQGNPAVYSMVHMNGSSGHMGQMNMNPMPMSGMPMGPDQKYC
Chain of 5-hydroxytryptamine receptor 1E (P28566 whole entry, the tested form may be a part): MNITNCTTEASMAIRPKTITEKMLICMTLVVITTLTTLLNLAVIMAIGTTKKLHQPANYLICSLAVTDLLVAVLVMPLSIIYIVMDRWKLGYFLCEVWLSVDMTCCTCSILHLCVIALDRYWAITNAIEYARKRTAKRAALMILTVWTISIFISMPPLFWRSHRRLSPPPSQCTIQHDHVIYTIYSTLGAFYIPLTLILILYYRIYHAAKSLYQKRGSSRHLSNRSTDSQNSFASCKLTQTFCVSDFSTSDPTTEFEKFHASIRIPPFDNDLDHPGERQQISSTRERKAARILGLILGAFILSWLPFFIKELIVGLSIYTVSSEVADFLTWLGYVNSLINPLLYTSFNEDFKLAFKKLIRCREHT

CC(CC1CC(C)(C)OC1=O)C(=O)Nc1ccc([N+](=O)[O-])cc1 (stereo unspecified)
CC50 [1]: > 99 µM (not active)

Cc1cccc(-n2c(=S)[nH]c3sc4c(c3c2=O)CCc2ccccc2-4)c1
EC50 [2]: > 79.4 µM (inactive)
EC50 [3]: > 79.4 µM (not active)
EC50 [4]: > 79.4 µM (not active)
IC50 [5]: > 50 µM (not active)
IC50 [6]: 36.3 µM (active)
IC50 [7]: > 80 µM (inactive)

Cc1ccc(NC(=O)C(c2ccccc2)C2CCCC2)cc1 (stereo unspecified)
IC50 [8]: 2.43 µM (active)
IC50 [9]: 7.06 µM (active)

COc1ccc(S(=O)(=O)Nc2ccccc2C(=O)Nc2nc(-c3ccc(F)cc3)cs2)cc1OC
IC50 [10]: 4.41 µM (active)

CC1(C)CC(N2CCCCCC2)=CC(=[N+]2CCCC2)C1
IC50 [11]: 8.01 µM (active)
IC50 [12]: > 35 µM (not active)
IC50 [13]: > 35 µM (not active)
EC50 [14]: > 150 µM (inactive)
IC50 [15]: > 20 µM (inactive)
EC50 [16]: 17.5 µM (active)
IC50 [17]: 16.4 µM (inactive)
EC50 [18]: 4.99 µM (active)
IC50 [19]: > 20 µM (inactive)

CCOc1cccc(C(=O)Nc2nnc(-c3cccs3)s2)c1
EC50 [20]: 22.2 µM (not active)
EC50 [21]: 24.1 µM (not active)
EC50 [22]: 30.3 µM (not active)

N#C/C(=N\Nc1ccc(S(=O)(=O)N2CCc3ccccc32)cc1)C(N)=S
EC50 [23]: > 150 µM (not active)
EC50 [24]: 31.7 µM (active)
EC50 [25]: 14.5 µM (active)
EC50 [26]: > 100 µM (active)
EC50 [27]: 40 µM (active)
AC50 [28]: 2.32 µM (active)

CC(C)NC(=S)N/N=C/c1c[nH]c2ccccc12
CC50 [29]: > 40 µM (active)
IC50 [30]: > 100 µM (active)

COc1cc(/C=N/NC(N)=O)ccc1OCC(=O)Nc1ccc(C)c(C)c1
EC50 [31]: > 112 µM (not active)
IC50 [32]: > 35 µM (not active)
IC50 [33]: 9.83 µM (active)
EC50 [34]: 11.4 µM (active)

C[C@@H](C(=O)O)c1ccc(N2Cc3ccccc3C2=O)cc1 [(R)-INDOPROFEN]
AC50 [35]: 7.94 µM (inconclusive)
AC50 [36]: 10 µM (inconclusive)
